Data reported in US7491794B2, “Macrocyclic compounds as inhibitors of viral replication” (Intermune, Inc., priority 2003, dated 2009).
Read-outs that look alike come from different tables or passages of the source.

Tests used:
NS3-NS4 protease = target: T1, NS3-NS4 protease (Hepatitis C virus genotype 1a, UniProt P27958); test: NS3-NS4 protease assay / NS3 inhibition assay, Section C; type: biochemical
T1 construct: Recombinant E. coli or Baculovirus full-length NS3 was diluted to 3.33 μM with assay buffer; made in house; host or cells: E. coli or baculovirus (BV) system
T1 sequence (P27958 1027-1657): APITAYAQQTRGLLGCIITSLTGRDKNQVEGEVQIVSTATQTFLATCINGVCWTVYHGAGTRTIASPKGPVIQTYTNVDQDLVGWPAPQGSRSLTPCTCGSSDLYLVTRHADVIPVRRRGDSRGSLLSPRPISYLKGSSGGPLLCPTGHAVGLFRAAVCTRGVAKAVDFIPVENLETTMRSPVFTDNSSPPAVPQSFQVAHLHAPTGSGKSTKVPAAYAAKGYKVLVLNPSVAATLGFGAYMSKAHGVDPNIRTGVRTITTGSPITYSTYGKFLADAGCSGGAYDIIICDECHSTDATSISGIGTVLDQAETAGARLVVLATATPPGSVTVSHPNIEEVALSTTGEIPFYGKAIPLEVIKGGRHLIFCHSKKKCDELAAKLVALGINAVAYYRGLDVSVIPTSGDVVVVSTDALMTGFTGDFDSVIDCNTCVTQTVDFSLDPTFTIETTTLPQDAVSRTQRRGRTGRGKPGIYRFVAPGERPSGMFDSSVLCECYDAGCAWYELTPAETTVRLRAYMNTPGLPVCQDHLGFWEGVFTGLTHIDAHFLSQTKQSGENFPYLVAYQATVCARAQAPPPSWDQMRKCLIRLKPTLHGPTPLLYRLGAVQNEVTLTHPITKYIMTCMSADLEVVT
Method: NS3 complex formation with NS4A-2.
Recombinant E. coli or Baculovirus full-length NS3 was diluted to 3.33 μM with assay buffer and transfered material to an eppendorf tube and place in water bath in 4° C. refrigerator. The appropriate amount of NS4A-2 to 8.3 mM in assay buffer was added to equal the volume of NS3 in step 2.1.1 (conversion factor −3.8 mg/272 μL assay buffer). The material was transferred to an eppendorf tube and place in water bath in 4° C. refrigerator.
After equilibration to 4° C., equal volumes of NS3 and NS4A-2 solutions were combined in an eppendorf tube, mix gently with a manual pipettor, and incubate mixture for 15 minutes in the 4° C. water bath. Final concentrations in the mixture are […] NS3, 4.15 mM NS4A-2 (2485-fold molar excess NS4A-2).
After 15 minutes at 4° C., the NS3/NS4A-2 eppendorf tube was removed and place it in a room temperature water bath for 10 minutes. NS3/NS4A-2 was alliquoted at appropriate volumes and store at −80° C. (E. coli NS3 run at 2 nM in assay, aliquot at 25 μL. BV NS3 run at 3 nM in assay, aliquot at 30 μL).
Step 2.2.5. Sample compounds were dissolved to 10 mM in DMSO then diluted to 2.5 mM (1:4) in DMSO.
Step 2.2.6. The E. coli. NS3/NS4A-2 was diluted to 4 nM NS3 (1:417.5 of […] stock−18 μL 1.67 μM stock+7497 μL assay buffer). The BV NS3/NS4A-2 was diluted to 6 nM NS3 (1:278.3 of 1.67 μM stock−24 μL 1.67 μM stock+6655 μL assay buffer).
Step 2.2.7. Using the manual multichannel pipettor, and being careful not to introduce bubbles into the plate, 50 μL assay buffer were added to wells A01-H01 of a black Costar 96-well polypropylene storage plate.
Step 2.2.8. Using the manual multichannel pipettor, and being careful not to introduce bubbles into the plate, 50 μL of diluted NS3/NS4A-2 from step 2.2.6 were added to wells A02-H12 of plate in step 2.2.7.
Step 2.2.9. Using the manual multichannel pipettor, and being careful not to introduce bubbles into the plate, 25 μL of the wells in drug dilution plate in step 2.2.5 were transferred to corresponding wells in assay plate in step 2.2.8. The tips on multichannel pipettor were changed for each row of compounds transferred.
Step 2.2.10. Using the manual multichannel pipettor, and being careful not to introduce bubbles into the plate, the contents of the wells from the assay plate in step 2.2.9 were mixed by aspirating and dispensing 35 μL of the 75 μL in each well five times. The tips on the multichannel pipettor were changed for each row of wells mixed.
Step 2.2.11. The plate was covered with a polystyrene plate lid, and the plate from step 2.2.10 containing NS3 protease and sample compounds was pre-incubated 10 minutes at room temperature.
While the plate from step 2.2.11 was pre-incubating, the RETS1 substrate was diluted in a 15 mL polypropylene centrifuge tube. The RETS1 substrate was diluted to 8 μM (1:80.75 of 646 μM stock−65 μL 646 μM stock+5184 μL assay buffer).
After the plate in step 2.2.11 was done pre-incubating, and using the manual multichannel, 25 μL of substrate were added to all wells on the plate. The contents of the wells of plate were quickly mixed, as in step 2.2.10, but mixing 65 μL of the 100 μL in the wells.
The plate was read in kinetic mode on the Molecular Devices SpectraMax Gemini XS plate reader. Reader settings: Read time: 30 minutes, Interval: 36 seconds, Reads: 51, Excitation λ: 335 nm, Emission λ: 495 nm, cutoff: 475 nm, Automix: off, Calibrate: once, PMT: high, Reads/well: 6, Vmax pts: 21 or 28/51 depending on length of linearity of reaction.
IC50s were determined using a four parameter curve fit equation, and converted to Ki's using the following Km's:
where Ki=IC50/(1+[S]/Km))

[1] = system: HCV sub-genomic replicon, GS4.3; test: Quantitation by ELISA of NPTII in the HCV sub-genomic replicon, GS4.3, Section C; type: cell-based; conditions: Hepatitis C virus
Source text: Quantitation by ELISA of the selectable marker protein, Neomycin phosphotransferase II (NPTII) in the HCV Sub-Genomic Replicon, GS4.3
The HCV sub-genomic replicon (1377/NS3-3′, accession No. AJ242652), stably maintained in HuH-7 hepatoma cells, was created by Lohmann et al. Science 285: 110-113 (1999). The replicon-containing cell culture, designated GS4.3, was obtained from Dr. Christoph Seeger of the Institute for Cancer Research, Fox Chase Cancer Center, Philadelphia, Pa.
GS4.3 cells were maintained at 37° C., 5% CO2, in DMEM (Gibco 11965-092) supplemented with L-glutamine 200 mM (100×) (Gibco25030-081), non-essential amino acids (NEAA)(Biowhittaker 13-114E), heat-inactivated (HI) Fetal Bovine Serum(FBS)(Hyclone SH3007.03) and 750 μg/ml geneticin (G418)(Gibco 10131-035). Cells were sub-divided 1:3 or 4 every 2-3 days.
24 h prior to the assay, GS4.3 cells were collected, counted, and plated in 96-well plates (Costar 3585) at 7500 cells/well in 100 μl standard maintenance medium (above) and incubated in the conditions above. To initiate the assay, culture medium was removed, cells were washed once with PBS (Gibco 10010-023) and 90 μl Assay Medium (DMEM, L-glutamine, NEAA, 10% HI FBS, no G418) was added. Inhibitors were made as a 10× stock in Assay Medium, (3-fold dilutions from 10 μM to […] final concentration, final DMSO concentration 1%), 10 μl were added to duplicate wells, plates were rocked to mix, and incubated as above for 72 h.
An NPTII Elisa kit was obtained from AGDIA, Inc. (Compound direct ELISA test system for Neomycin Phosphotransferase II, PSP 73000/4800). Manufacturer's instructions were followed, with some modifications. 10×PEB-1 lysis buffer was made up to include 500 μM PMSF (Sigma P7626, 50 mM stock in isopropanol). After 72 h incubation, cells were washed once with PBS and 150 μl PEB-1 with PMSF was added per well. Plates were agitated vigorously for 15 minutes, room temperature, then frozen at −70° C. Plates were thawed, lysates were mixed thoroughly, and 100 μl were applied to an NPTII Elisa plate. A standard curve was made. Lysate from DMSO-treated control cells was pooled, serially diluted with PEB-1 with PMSF, and applied to duplicate wells of the ELISA plate, in a range of initial lysate amount of 150u1-2.5 ul. In addition, 100 μl buffer alone was applied in duplicate as a blank. Plates were sealed and gently agitated at room temperature for 2 h. Following capture incubation, the plates were washed 5×300 μl with PBS-T (0.5% Tween-20, PBS-T was supplied in the ELISA kit). For detection, a 1× dilution of enzyme conjugate diluent MRS-2 (5×) was made in PBS-T, into which 1:100 dilutions of enzyme conjugates A and B were added, as per instructions. Plates were resealed, and incubated with agitation, covered, room temperature, for 2 h. The washing was then repeated and 100 μl of room temperature TMB substrate was added. After approximately 30 minutes incubation (room temperature, agitation, covered), the reaction was stopped with 50 μl 3M sulfuric acid. Plates were read at 450 nm on a Molecular Devices Versamax plate reader.
Inhibitor effect was expressed as a percentage of DMSO-treated control signal, and inhibition curves were calculated using a 4-parameter equation: y=A+((B−A)/(1+((C/x)^D))), where C is half-maximal activity or EC50.

[2] = GS4.3 cells, 72 h incubation, read-out: EC50

| SMILES | IC50 (NS3-NS4 protease; read-out: NS3-NS4 IC50) [nM] | EC50 [1, 2] [nM] | IC50 (NS3-NS4 protease) [nM] | EC50 ([1]; 72 h) [nM] |
| --- | --- | --- | --- | --- |
| CN1CCN(S(=O)(=O)NC(=O)[C@@]23C[C@H]2/C=C\CCCCC[C@H](NC(=O)OC(C)(C)C)C(=O)N2C[C@H](OC(=O)N4Cc5ccccc5C4)C[C@H]2C(=O)N3)CC1 [Compound 118, (1S,4R,6S,14S,18R)-1,3-Dihydro-isoindole-2-carboxylic acid 14-tert-butoxycarbonylamino-4-(4-methylpiperazine-1-sulfonyl-aminocarbonyl)-2,15-dioxo-3,16-diaza-tricyclo[14.3.0.0^4,6]nonadec-7-en-18-yl ester] | < 100 | < 100 |  |  |
| CC(C)(C)OC(=O)N[C@H]1CCCCC/C=C\[C@@H]2C[C@@]2(C(=O)NS(=O)(=O)N2CCN(C(=O)OCC[Si](C)(C)C)CC2)NC(=O)[C@@H]2C[C@@H](OC(=O)N3Cc4ccccc4C3)CN2C1=O [Compound 119, (1S,4R,6S,14S,18R)-1,3-Dihydro-isoindole-2-carboxylic acid 14-tert-butoxycarbonylamino-4-(4-(2-trimethylsilylethoxycarbonyl)piperazine-1-sulfonyl-aminocarbonyl)-2,15-dioxo-3,16-diaza-tricyclo[14.3.0.0^4,6]nonadec-7-en-18-yl ester] |  |  | < 100 | < 100 |
| CC(C)(C)OC(=O)N[C@H]1CCCCC/C=C\[C@@H]2C[C@@]2(C(=O)NS(=O)(=O)NC2CC2)NC(=O)C2C[C@@H](OC(=O)N3Cc4cccc(F)c4C3)CN2C1=O (stereo partly drawn) [Compound 121] | < 100 | < 100 |  |  |
| CC(C)(C)OC(=O)N[C@H]1CCCCC/C=C\[C@@H]2C[C@@]2(C(=O)NS(N)(=O)=O)NC(=O)[C@@H]2C[C@@H](OC(=O)N3Cc4ccccc4C3)CN2C1=O [Compound 122, (1S,4R,6S,14S,18R)-1,3-Dihydro-isoindole-2-carboxylic acid 14-tert-butoxycarbonylamino-4-(aminosulfonyl-aminocarbonyl)-2,15-dioxo-3,16-diaza-tricyclo[14.3.0.0^4,6]nonadec-7-en-18-yl ester] | < 100 | < 100 |  |  |
| CN1CCC(N(C2CC2)S(=O)(=O)NC(=O)[C@@]23C[C@H]2/C=C\CCCCC[C@H](NC(=O)OC(C)(C)C)C(=O)N2C[C@H](OC(=O)N4Cc5ccccc5C4)C[C@H]2C(=O)N3)CC1 [Compound 124, (1S,4R,6S,14S,18R)-1,3-Dihydro-isoindole-2-carboxylic acid 14-tert-butoxycarbonylamino-4-(cyclopropyl(1-methylpiperidin-4-yl)aminosulfonyl-aminocarbonyl)-2,15-dioxo-3,16-diaza-tricyclo[14.3.0.0^4,6]nonadec-7-en-18-yl ester] | < 1000 | < 100 |  |  |
| CC(C)(C)OC(=O)N[C@H]1CCCCC/C=C\[C@@H]2C[C@@]2(C(=O)NS(=O)(=O)N(CCC#N)C2CC2)NC(=O)[C@@H]2C[C@@H](OC(=O)N3Cc4ccccc4C3)CN2C1=O [Compound 125, (1S,4R,6S,14S,18R)-1,3-Dihydro-isoindole-2-carboxylic acid 14-tert-butoxycarbonylamino-4-(2-cyanoethyl(cyclopropyl)aminosulfonyl-aminocarbonyl)-2,15-dioxo-3,16-diaza-tricyclo[14.3.0.0^4,6]nonadec-7-en-18-yl ester] | < 100 | < 100 |  |  |
| CC(C)N(C(C)C)S(=O)(=O)NC(=O)[C@@]12C[C@H]1/C=C\CCCCC[C@H](NC(=O)OC(C)(C)C)C(=O)N1C[C@H](OC(=O)N3Cc4ccccc4C3)C[C@H]1C(=O)N2 [Compound 126, (1S,4R,6S,14S,18R)-1,3-Dihydro-isoindole-2-carboxylic acid 14-tert-butoxycarbonylamino-4-(N,N-diisopropylaminosulfonyl-aminocarbonyl)-2,15-dioxo-3,16-diaza-tricyclo[14.3.0.0^4,6]nonadec-7-en-18-yl ester] | < 100 | < 100 |  |  |
| CC(C)(C)OC(=O)N[C@H]1CCCCC/C=C\[C@@H]2C[C@@]2(C(=O)NS(=O)(=O)Nc2ccccc2)NC(=O)[C@@H]2C[C@@H](OC(=O)N3Cc4ccccc4C3)CN2C1=O [Compound 127, (1S,4R,6S,14S,18R)-1,3-Dihydro-isoindole-2-carboxylic acid 14-tert-butoxycarbonylamino-4-(phenylaminosulfonyl-aminocarbonyl)-2,15-dioxo-3,16-diaza-tricyclo[14.3.0.0^4,6]nonadec-7-en-18-yl ester] | < 100 | < 100 |  |  |
| CC(C)(C)OC(=O)N[C@H]1CCCCC/C=C\[C@@H]2C[C@@]2(C(=O)NS(=O)(=O)Nc2ccc(Cl)cc2)NC(=O)[C@@H]2C[C@@H](OC(=O)N3Cc4ccccc4C3)CN2C1=O [Compound 128, (1S,4R,6S,14S,18R)-1,3-Dihydro-isoindole-2-carboxylic acid 14-tert-butoxycarbonylamino-4-(4-chlorophenylaminosulfonyl-aminocarbonyl)-2,15-dioxo-3,16-diaza-tricyclo[14.3.0.0^4,6]nonadec-7-en-18-yl ester] | < 100 | < 100 |  |  |
